Patent US20150250782A1, “Methods and Compositions for Hypotensive Resuscitation” (Pharmazz, Inc., priority 2012, published 2015)

Legend:
[1] = tested on: urethane anesthetized rats and conscious freely moving cats and rats; conditions: 0.05 to 0.2 mg/kg, iv; Srimal, Gulati et al. 1990; cited from earlier work
[2] = tested on: hemorrhaged rats; assay: Fixed-pressure hemorrhage model, centhaquin dissolved in LR (100% SBV); type: in vivo, rat
Description: In the studies disclosed below, a rodent model of fixed-pressure hemorrhage without tissue trauma was used. This model limits factors that can influence the activity of a drug that is being investigated for the first time as a resuscitation agent. This hemorrhage model was made more severe by maintaining the hypotension for 30 minutes from the onset of hemorrhage to reach a base deficit of greater than −12 mEq/L (Gulati, Sen et al. 1997). In this irreversible situation, compensatory mechanisms fail (decompensatory phase), and a tremendous decrease in blood flow to all organs occurs, causing hypoperfusion leading to tissue hypoxia and end-organ failure (Gulati, Sen et al. 1997).
A rodent model of fixed-pressure hemorrhage without tissue trauma was used in a preliminary study. This hemorrhage model was made more severe by maintaining the hypotension for 30 min from the onset of hemorrhage to reach a base deficit of greater than −12 mEq/L (Gulati, Sen et al. 1997). […] Following groups were studied: Lactated Ringer's solution (LR-100) (100% shed blood volume (SBV)), or centhaquin (free base) (0.017, 0.05 and 0.15 mg/kg) dissolved in LR (100% SBV), or LR-300 (300% SBV).

[3] = tested on: hemorrhaged rats; assay: Norepinephrine required to maintain MAP at 70 mmHg in hemorrhaged rats; type: in vivo, rat; conditions: 0.05 mg/kg
Description: In another study, the effect of centhaquin resuscitation on the amount of norepinephrine (NE) required to maintain mean arterial pressure (MAP) and the time by which MAP falls back to 35 mmHg in hemorrhaged rats was determined. Male, adult rats were anesthetized with urethane and a pressure catheter SPR-320 was placed in the femoral artery, and a pressure-volume catheter SPR-869 was placed in the left ventricle. Hemorrhage was induced by withdrawing blood and MAP was maintained at 35 mmHg for 30 minutes followed by resuscitation.
Two sets of experiments were performed. First, the amount of NE required to maintain MAP at 70 mmHg in normal saline (NS) or centhaquin (0.05 mg/kg) treated rats (volume equal to blood loss) was determined. Second, the time by which MAP fell back to 35 mmHg in rats treated with 3% hypertonic saline (HS) or centhaquin (0.05 mg/kg) (volume one-fifth of blood loss) was determined. […] In a second set of experiments, hemorrhaged rats were resuscitated with either HS or centhaquin (one-fifth the volume of blood loss).

[4] = tested on: hemorrhaged rats; assay: Initial experiments in hemorrhaged rats with 0.45 mg/kg centhaquin; type: in vivo, rat
Description: Initial experiments in hemorrhaged rats were performed with a 0.45 mg/kg dose of centhaquin. […] Centhaquin (0.45 mg/kg) produced a decrease in HR (beats/min) from 368±12 at hemorrhage, to 306±6, 309±6 and 274±11 at 30, 60 and 120 min, respectively, following resuscitation; cardiac output (mL) increased from 32±6 at hemorrhage, to 77±3, 74±4 and 62±5 at 30, 60 and 120 min, respectively, following resuscitation; while systemic vascular resistance (dynes*sec/cm5) was 84±4 at hemorrhage, and fell to 39±9, 42±9 and 45±6 at 30, 60 and 120 min, respectively, following resuscitation.

[5] = tested on: dog femoral artery; conditions: 10 and 20 μg locally into femoral artery; Srimal, Mason et al. 1990; cited from earlier work
[6] = tested on: right auricle of guinea pig; conditions: Srimal, Mason et al. 1990, cited from earlier work
[7] = 0.05 mg/kg, 60 min following resuscitation
[8] = 120 min following resuscitation

In the case of `Cc1cccc(N2CCN(CCc3ccc4ccccc4n3)CC2)c1` [centhaquin, 2-[2-(4-(3-methyphenyl)-1-piperazinyl)ethyl]-quinoline], the “mean arterial pressure (MAP) and heart rate (HR)” value [1] is listed as “dose-dependent decrease”, the “decrease in systemic vascular resistance” value ([2]; 0.017 mg/kg) is listed as 57% and the “increase in MAP” value ([2]; 0.017 mg/kg) is listed as 55%. The “increase in cardiac output” value ([2]; 0.017 mg/kg) was 260%, the survival time ([2]; 0.017 mg/kg in LR (100% SBV)) was 291 ± 57 min and the blood lactate levels ([2]; 0.017 mg/kg, 60 min following resuscitation) was 3.55 ± 0.07 mmol/L. The “decrease in systemic vascular resistance” value ([2]; 0.05 mg/kg) was 41%, the “increase in cardiac output” value ([2]; 0.05 mg/kg) was 180% and the survival time ([2]; 0.05 mg/kg in LR (100% SBV)) was 387 ± 39 min. For the same compound, the “resuscitation compared to LR-300” value ([2]; 0.05 mg/kg in LR-100 vs LR-300 (300% SBV)) was “more effective in resuscitation”, the blood lactate levels [2, 7] was 4.08 ± 0.28 mmol/L and the “increase in MAP” value [2, 7] was 59%. For the same compound, the Blood lactate ([3]; 60 min following resuscitation, volume equal to blood loss) was 1.65 ± 0.23 mmol/L, the “amount of NE needed in each rat to maintain MAP at 70 mmHg” value ([3]; first 60 min of resuscitation) was 17.5 µg and the HR ([4]; 30 min following resuscitation) was 306±6 beats/min. It also gave an MAP ([4]; 30 min following resuscitation) of 38±4 mmHg, a cardiac output ([4]; 30 min following resuscitation) of 77 ± 3 mL and a systemic vascular resistance ([4]; 30 min following resuscitation) of 39±9 dynes*sec/cm5. The HR ([4]; 60 min following resuscitation) was 309±6 beats/min, the MAP ([4]; 60 min following resuscitation) was 39±4 mmHg and the cardiac output ([4]; 60 min following resuscitation) was 74 ± 4 mL. For the same compound, the systemic vascular resistance ([4]; 60 min following resuscitation) was 42±9 dynes*sec/cm5, the HR [4, 8] was 274±11 beats/min and the MAP [4, 8] was 35±4 mmHg. The cardiac output [4, 8] was 62 ± 5 mL, the systemic vascular resistance [4, 8] was 45±6 dynes*sec/cm5 and the HR ([4]; at hemorrhage) was 368±12 beats/min. For the same compound, the cardiac output ([4]; at hemorrhage) was 32 ± 6 mL, the systemic vascular resistance ([4]; at hemorrhage) was 84±4 dynes*sec/cm5 and the blood flow [5] was “increased blood flow”. The “effect on positive inotropic effect of norepinephrine” value [6] was “significantly potentiated” and the “spontaneous contraction of the right auricle” value ([6]; up to a concentration of 2 μg/ml) was “not affected”.
